In US20200158737A1, “METHODS OF MEASURING UBIQUITIN-LIKE MODIFICATIONS” (Regents of the University of Minnesota, priority 2018, published 2020):
Residues, ends and D or L forms follow the SMILES beside them. *: point of attachment. Cbz = O=C(OCc1ccccc1)*

Columns and labels:
[1] = target: T1, bovine serum albumin (BSA) (Bos taurus, UniProt P02769); assay: Ninhydrin test with BSA standard to evaluate AcGG-NHS labeling efficiency
T1 construct: purchased VWR
Method: To test the amine labeling efficiency of AcGG-NHS, three groups of samples were prepared—Blank: 100 μL of 9 M urea/1×PBS, Control: 0.1 mg BSA (5 μL of 20 mg/mL BSA) and 95 μL of 9 M urea/1×PBS, Test: 0.1 mg BSA (5 μL of 20 mg/mL BSA) and 95 μL of 9 M urea/1×PBS. First, samples in each groups were reduced with a final concentration of 5 mM TCEP and alkylated with a final concentration of 5 mM iodoacetamide at room temperature with shaking in dark for 30 min. Then, samples in the Test group were derivatized with AcGG-NHS following the procedure described below. Each group was followed by a reaction with ⅕ the volume of Ninhydrin reagent solution (0.35 g ninhydrin in 100 mL EtOH) at 85° C. with gentle stirring for 5 min. Absorbance of each sample was measured at 577 nm using NanoDrop spectrophotometer (Fisher).
Ten μg of proteins were dried in a Speed-Vac and resuspended in 10 μL of 9 M urea/PBS with pH adjusted to ˜8.5. AcGG-NHS stock solution was prepared by dissolving AcGG-NHS in 50% ACN/50% H2O mixture at a concentration of 100 mg/mL. One μL of AcGG-NHS stock solution was added to each sample and the mixture was vortexed for 45 min. The labeling was repeated for another two times. The reaction was quenched with 5% hydroxylamine (pH=6.0, 1.5 M) for 15 min. Each sample was diluted 6× with PBS and proteins were digested with trypsin for overnight at 37° C. […]

[2] = tested on: ubiquitination sites in histone-enriched fractions of 293T cells; assay: IBAQ-Ub site-specific stoichiometric analysis of known Ub sites on acid-extracted histones from 293T cells treated with DMSO or MG132; format: cell-based, human
Method: 293T cells were treated with 5 μM MG132 or the equal volume of DMSO for 12 hours. Histone extraction was performed as described previously (D. Shechter, et al., Nat Protoc 2007, 2, 1445-1457). Briefly, the cells were harvested by trypsin digestion. The cell pellets were washed with cold PBS and then lysed in 0.5 mL Extraction Buffer (PBS+0.5% Triton X-100 (v/v)) with protease inhibitor cocktail. After centrifuge, the supernatant was discarded and the pellet was washed with Extraction Buffer again to remove residual supernatant solution in pellet. The pellet was re-suspended in 0.4 ml 0.4 N H2SO4 for acid extraction. After overnight incubation at 4° C., the supernatant was extracted and proteins were precipitated with a final concentration of 20% TCA (v/v), followed by cold acetone wash. The protein pellet was air dried and protein concentration was measured by the Bradford assay after solubilizing the pellet with water.
Ten μg of proteins were dried in a Speed-Vac and resuspended in 10 μL of 9 M urea/PBS with pH adjusted to ˜8.5. AcGG-NHS stock solution was prepared by dissolving AcGG-NHS in 50% ACN/50% H2O mixture at a concentration of 100 mg/mL. One μL of AcGG-NHS stock solution was added to each sample and the mixture was vortexed for 45 min. The labeling was repeated for another two times. The reaction was quenched with 5% hydroxylamine (pH=6.0, 1.5 M) for 15 min. Each sample was diluted 6× with PBS and proteins were digested with trypsin for overnight at 37° C. (enzyme-to-substrate ratio of 1:100 (w/w)). When a second digestion was needed, another protease (Glu-C or Asp-N) was added (enzyme to substrate ratio of 1:100 w/w) for overnight digestion at 37° C. Following digestion, peptides were desalted and then resuspended in 10 μL of 9M urea/PBS at a pH ˜8.5. Heavy Ac—NHS stock solution was prepared by dissolving heavy Ac—NHS in ACN at a concentration of 100 mg/mL. One μL of heavy Ac—NHS stock solution was added to each sample for 45-min labeling. The labeling was repeated for two more times and the reaction was quenched with 5% hydroxylamine (pH=6.0, 1.5 M) for 15 min. The peptides were desalted with stage tips (C18) prior to LCMS analysis (J. Rappsilber, et al., Nat Protoc 2007, 2, 1896-1906).
Mass spectrometry data were collected using an Orbitrap Fusion mass spectrometer (Thermo Scientific) with a Top-12 method. Samples were resolubilized in HPLC buffer A (0.1% formic acid in water, v/v) and injected onto a self-packed reversed-phase capillary HPLC column (15 cm×100 μm, ReproSil-Pur Basic C18, 2.5 μm, Dr. Maisch GmbH). Peptides were separated by a Proxeon Easy nLC 1000 Nano-UPLC system (Thermo Scientific) at a flow rate of 200 nL/min with a 56 min gradient of 7-32% HPLC buffer B (0.1% formic acid in acetonitrile, v/v). The Orbitrap Fusion mass spectrometer (Thermo Scientific) was operated in a positive polarity mode with ion transfer tube temp of 275° C. Precursor ions were acquired in Orbitrap with a resolution 60,000 at 200 m/z and a mass range of 380-1800 m/z. Dynamic exclusion was enabled with an exclusion duration of 15 s and a mass tolerance of ±25 ppm. Fragment ions were acquired in the linear ion trap with an isolation window of 1.6 m/z and high energy collisional dissociation (HCD) of 35%.
Mass spectra were processed with MaxQuant software (version 1.5.3.12) (J. Cox, M. Mann, Nat Biotechnol 2008, 26, 1367-1372). […]

[3] = sites quantified in both DMSO and MG132 treated samples, histone-enriched chromatin fractions of 293T cells

T1 sequence (P02769 25-607): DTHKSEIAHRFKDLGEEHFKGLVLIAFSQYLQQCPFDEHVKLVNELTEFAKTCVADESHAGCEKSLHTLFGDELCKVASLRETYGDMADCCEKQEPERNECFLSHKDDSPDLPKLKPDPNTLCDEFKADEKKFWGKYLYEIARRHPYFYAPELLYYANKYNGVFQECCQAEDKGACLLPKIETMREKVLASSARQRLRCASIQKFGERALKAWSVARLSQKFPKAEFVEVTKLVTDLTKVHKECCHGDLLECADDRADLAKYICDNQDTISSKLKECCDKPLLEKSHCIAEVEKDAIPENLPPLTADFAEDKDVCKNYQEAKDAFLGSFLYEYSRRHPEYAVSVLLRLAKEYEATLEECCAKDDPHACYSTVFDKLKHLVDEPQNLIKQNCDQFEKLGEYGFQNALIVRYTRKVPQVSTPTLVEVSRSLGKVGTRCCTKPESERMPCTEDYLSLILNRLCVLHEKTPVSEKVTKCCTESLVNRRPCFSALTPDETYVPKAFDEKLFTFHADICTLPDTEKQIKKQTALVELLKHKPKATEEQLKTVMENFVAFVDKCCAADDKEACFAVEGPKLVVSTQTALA

Structure (SMILES) | Ninhydrin reactivity on BSA after labeling ([1]; BSA after AcGG-NHS labeling, FIG. 9B-9C) | reactivity to derivatize amino groups ([1]; Ninhydrin test, BSA standard, absorbance at 577 nm) | abundance of histone H2B K117/K120 ubiquitination (Ub stoichiometry) ([2]; 293T cells, 5 μM MG132 12 hours, acid-extracted histones, stoichiometry 0.91% without MG132) | K48 polyubiquitin linkage stoichiometry on extracted histones ([2]; 293T cells, 5 μM MG132 12 hours, DMSO control 0.85%) [%] | increase of K48 ubiquitination stoichiometry versus DMSO control ([2]; 293T cells, MG132 treatment, extracted histones) | sites with decreased ubiquitination upon treatment [2, 3] | sites with increased Ub abundance upon treatment [2, 3]
CC(=O)NCC(=O)NCC(=O)ON1C(=O)CCC1=O [AcGG-NHS, Acetyl glycylglycine-N-hydroxysuccinamide] (HELM PEPTIDE1{[ac].G.G.[O=C1CCC(=O)N1O[*:1]]}$$$$V2.0) | complete loss of Ninhydrin reactivity | high reactivity | – | – | – | – | –
CC(C)C[C@@H](C=O)NC(=O)[C@H](CC(C)C)NC(=O)[C@H](CC(C)C)NC(=O)OCc1ccccc1 [MG132] (Cbz-Leu-Leu-Leu-aldehyde) | – | – | below the detection limit | 2.93 | more than tripled | 27 % of the sites | 72 % of the sites
